Experimental data from US20030216471A1, “Retinoid formulations for aerosolization and inhalation” (priority 2003, published 2003).
“Also recorded” adds a separate entry of the source. Read-outs that look alike come from different tables or passages of the source. Marks after values point to notes of the source that are not given here.

Assays:
RAR γ = test: RAR induction in lungs of A/J mice exposed to isotretinoin aerosol, RAR γ; format: in vivo, mouse; settings: inhaled mid dose, urethane-treated A/J mice
Protocol: (§1) Antibodies: Polyclonal antibodies to RARα, β and γ (Santa Cruz Biotechnology Inc., San Francisco, Calif.) were used with a BM Chemiluminescence Western Blotting Kit (Mouse/Rabbit) (Boehringer Mannheim Corporation, Indianapolis).
(§2) Experimental Design: Five lungs each from the urethane-treated vehicle, low dose, and mid dose animals were snap frozen in liquid nitrogen and stored at −70° C. for determination of RARs α, β and γ by Western Blot Analysis. […] The lungs were homogenized and the RARs were determined by standard Western Blotting (21, 22).
(§3) Samples: Lung tissue was collected, frozen on dry ice and kept at −70° C. until used. A 500 mg portion was diced in small pieces and homogenized in 300 μl of cold PBS using a hand held homogenizer for 2-3 min. Samples were centrifuged at 500 rpm for 5 min or until the supernatant was clear. The pellet was suspended in 400 μl of cold Buffer A [2 μl 0.5 M EDTA, 10 μl mM EGTA, 50 μl 100 mM PMSF, 10 μl 1M DTT, 10 ml (10 mM HEPES pH 7.9+10 mM KCl)], and left at ice temperature for 15 min. A 25 μl volume of 10% solution of NP−40 was added and the samples were mixed in a vortex vigorously for 10 sec. Samples were centrifuged at 14,000 rpm for 1 min at 4° C. and the pellet was treated once more in this fashion. […]

RAR β [1] = test: Western blot of rat lung, inhaled 13-cis RA (experiment A), RAR β; format: in vivo; settings: for upregulation of lung tissue RAR (second named, β): daily deposited dose 6.4 mg/kg/day
Protocol: The experimental groups were as follows (Table 4):1. Vehicle (10/9 mix of PEG 300 and Ethanol with 0.5% of ascorbic acid and 0.5% phosphatidyl choline) control, day 1: rats (19) inhaled vehicle for 2 hr for one day; 2. […] Vehicle control, day 28: rats (16) inhaled vehicle as for group 1 for a period of 28 days; 5.
Tissues were collected, frozen in dry ice and kept at −70° C. until used. 500 mg aliquots were diced in small pieces and homogenized in 300 μl of cold PBS, using the hand held homogenizer for 2˜3 minutes. Sample and washes were centrifuged at 5000×g for 20 minutes. The pellet was suspended in 400 μl of ice-cold Buffer A [2 μl 0.5M EDTA, 10 μl 100 mM EGTA, 50 μl 100MM PMSF, 10 μl 1M DTT, 10 ml (10 mM HEPES pH 7.9+10 mM KCl)], and left at ice temperature for 15 minutes. 25 μl of 10% solution of NP-40 was added and samples were mixed in a vortex vigorously for 10 seconds. Samples were centrifuged at 14,000×g for 1 minute at 4° C. and the pellet treated once more in this fashion (resuspended etc.). The supernatant was removed and 100 μl of ice-cold Buffer C [4 μl 0.5M EDTA, 20 μl 100 mM EGTA, 20 μl 100 mM PMSF, 2 μl 1M DTT, 2 ml (20 mM HEPES pH 7.9+0.4M NaCl)] was added. Pellets were resuspended by tapping gently on the bottom of the Eppendorf tubes. Samples were rocked vigorously in a bucket of ice on an orbital shaker for 30 minutes. Samples were centrifuged at 14,000×g for 5 minutes at 4° C.
Samples were prepared by adding one part of the Sample Buffer to one part of the sample and mixing well. Samples were heated at 95° C. for 5 minutes to induce denaturation. 5 μl of Rainbow Standard and 5 μl of Biotinylated Molecular Marker were added to parallel wells. 20 μg protein per sample was loaded in each lane. Electrophoresis was performed with voltage set at 125V for about 1˜1.5 hours. Gel transfer was executed at 25V for 2 hours. The membrane was stained in Ponceau S. for 5 minutes and destained with one wash of 5% acetic acid. The membrane was then washed in TBS solution until the staining disappeared. […]

RAR β [2] = test: RAR induction in lungs of A/J mice exposed to isotretinoin aerosol, RAR β; format: in vivo, mouse; settings: inhaled mid dose, urethane-treated A/J mice
Protocol: as §1, §2, §3

RAR α = test: RAR induction in lungs of A/J mice exposed to isotretinoin aerosol, RAR α; format: in vivo, mouse; settings: inhaled mid dose, urethane-treated A/J mice
Protocol: as §1, §2, §3

CC1=C(/C=C/C(C)=C/C=C/C(C)=C\C(=O)O)C(C)(C)CCC1 [13-cis RA, 13-cis-Retinoic Acid]
upregulation of lung tissue RAR γ over solvent (vehicle) (RAR γ): 3.7 fold | induction of lung RAR (second named, β) (RAR β [1]; daily deposited dose 1.9 mg/kg/day, day 28): 8.0 fold | upregulation of lung tissue RAR (second named, β) (RAR β [1]; day 1): 7.2 fold | upregulation of lung tissue RAR (second named, β) (RAR β [1]; day 17): 10.0 fold | upregulation of lung tissue RAR β over solvent (vehicle) (RAR β [2]): 3.3 fold | Body Weights (Mean ± SD) (N) (BaP-Treated Mice, Day 102, High Dose): 19.3 ± 1.6 (12)^a,e gms | Body Weights (Mean ± SD) (N) (BaP-Treated Mice, Day 102, Low Dose, vehicle control 22.5): 21.8 ± 1.2 (21) gms | Body Weights (Mean ± SD) (N) (BaP-Treated Mice, Day 102, Mid Dose): 20.1 ± 1.8 (20)^a,b gms | Body Weights (Mean ± SD) (N) (NNK-Treated Mice, Day 102, High Dose): 17.5 ± 1.2 (14)^a,d gms | Body Weights (Mean ± SD) (N) (NNK-Treated Mice, Day 102, Low Dose, vehicle control 22.7): 22.1 ± 1.5 (21) gms | Body Weights (Mean ± SD) (N) (NNK-Treated Mice, Day 102, Mid Dose): 20.3 ± 1.2 (20)^a,b gms | Body Weights (Mean ± SD) (N) (Urethane-Treated Mice, Day 60, High Dose): 18.9 ± 1.7 (12)^a,c gms | Body Weights (Mean ± SD) (N) (Urethane-Treated Mice, Day 60, Low Dose, vehicle control 20.8): 21.0 ± 1.2 (21) gms | Body Weights (Mean ± SD) (N) (Urethane-Treated Mice, Day 60, Mid Dose): 20.7 ± 1.5 (21) gms | toxicity (high dose, daily exposures during first two weeks, listed as isotretinoin): excessive toxicity to the snout and forelimbs; also recorded: severe toxicity | mice that died (high dose, daily exposures for the first two weeks): ~35% | side effects (low dose): without any evidence of side effects | mice that died before the end of exposure (mid dose): 3% | time until which dose was tolerated (mice then began losing weight) (mid dose): ~12 wks | weights below those of vehicle controls at the end of exposure (mid dose, NNK- and BaP-treated mice): 11% | upregulation of lung tissue RAR α over solvent (vehicle) (RAR α): 3.9 fold
